Laboratory results from the supplement of paper PMC10627819.

Columns and labels:
S. aureus DSM 20231 [1] = test: fitness (endpoint OD595 vs no drug) (fraction); higher = more growth
Method in brief: (§1)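 Cultures at OD595 0.01 were dispensed into 384-well plates in TSB, LB Lennox or CY and incubated at 37 °C. Every 30 min for 14 h, OD595 was read and corrected by the first reading. Fitness is the optical density at entry into stationary phase relative to the robust mean of no-drug control wells, capped at 1.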

S. aureus Newman [2] = test: as above
Method in brief: as §1

S. pneumoniae D39V [3] = test: as above
Method in brief: as §1

B. subtilis 168 = test: Bliss interaction score (quartile over a dose matrix) (fitness difference); higher = more antagonism (negative = synergy)
Method in brief: (§2)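 Quartiles of the Bliss score were taken over technical, biological and donor/recipient replicates. That score is observed fitness minus the product of the single-drug fitness values, which were inferred from combination data. Fitness itself is OD595 at entry into stationary phase divided by the plate's robust no-drug mean, with a cap at 1.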

S. aureus DSM 20231 [4] = test: as above
Method in brief: as §2

S. aureus Newman [5] = test: as above
Method in brief: as §2

S. pneumoniae D39V [6] = test: as above
Method in brief: as §2
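Throughout, for Bliss interaction score (quartile over a dose matrix): first quartile when negative (synergy) and third quartile when positive (antagonism).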

CO/N=C(\C(=O)N[C@@H]1C(=O)N2C(C(=O)[O-])=C(C[N+]3(C)CCCC3)CS[C@H]12)c1csc(N)n1 [Cefepime] + CN(N=O)C(=O)N[C@@H](C=O)[C@@H](O)[C@H](O)[C@H](O)CO [Streptozotocin]
fitness
Details	first compound 0.007 µg/mL	first compound 0.014 µg/mL	first compound 0.028 µg/mL	first compound 0.125 µg/mL	first compound 0.25 µg/mL	first compound 0.5 µg/mL
S. aureus DSM 20231 [1], partner 0.15 µg/mL	–	–	–	0.789	0.705	0.721
S. aureus DSM 20231 [1], partner 0.3 µg/mL	–	–	–	0.667	0.645	0.713
S. aureus DSM 20231 [1], partner 0.6 µg/mL	–	–	–	0.589	0.588	0.61
S. aureus Newman [2], partner 0.15 µg/mL	–	–	–	0.814	0.765	0.682
S. aureus Newman [2], partner 0.3 µg/mL	–	–	–	0.717	0.641	0.66
S. aureus Newman [2], partner 0.6 µg/mL	–	–	–	0.505	0.482	0.506
S. pneumoniae D39V [3], partner 1.2 µg/mL	0.964	0.935	0.824	–	–	–
S. pneumoniae D39V [3], partner 2.4 µg/mL	0.987	0.993	0.923	–	–	–
S. pneumoniae D39V [3], partner 4.8 µg/mL	0.966	0.983	0.868	–	–	–

fitness, S. pneumoniae D39V [3], one replicate
Details	first compound 0.0078 µg/mL	first compound 0.0155 µg/mL	first compound 0.031 µg/mL
partner 1.2 µg/mL	0.984	0.953	0.186
partner 2.4 µg/mL	≥ 1	0.937	0.289
partner 4.8 µg/mL	0.956	0.895	0.0426

Details	Bliss interaction score
B. subtilis 168	-0.0416
S. aureus DSM 20231 [4]	-0.0779
S. aureus Newman [5]	0.0304
S. pneumoniae D39V [6]	-0.0319

CO/N=C(\C(=O)N[C@@H]1C(=O)N2C(C(=O)[O-])=C(C[N+]3(C)CCCC3)CS[C@H]12)c1csc(N)n1 [Cefepime] + CN[C@@H]1[C@H](O)[C@H](NC)[C@H]2O[C@@]3(O)C(=O)C[C@@H](C)O[C@H]3O[C@@H]2[C@H]1O [Spectinomycin]
fitness
Details	first compound 0.007 µg/mL	first compound 0.014 µg/mL	first compound 0.028 µg/mL	first compound 0.125 µg/mL	first compound 0.25 µg/mL	first compound 0.5 µg/mL
S. aureus DSM 20231 [1], partner 4 µg/mL	–	–	–	0.755	0.729	0.851
S. aureus DSM 20231 [1], partner 8 µg/mL	–	–	–	0.865	0.849	0.861
S. aureus DSM 20231 [1], partner 16 µg/mL	–	–	–	0.806	0.764	0.778
S. aureus Newman [2], partner 4 µg/mL	–	–	–	0.835	0.809	0.724
S. aureus Newman [2], partner 8 µg/mL	–	–	–	0.864	0.805	0.742
S. aureus Newman [2], partner 16 µg/mL	–	–	–	0.847	0.766	0.682
S. pneumoniae D39V [3], partner 4 µg/mL	0.935	0.935	0.877	–	–	–
S. pneumoniae D39V [3], partner 8 µg/mL	0.943	0.974	0.873	–	–	–
S. pneumoniae D39V [3], partner 16 µg/mL	0.916	0.918	0.876	–	–	–

fitness, one replicate
Details	first compound 0.0078 µg/mL	first compound 0.0155 µg/mL	first compound 0.031 µg/mL	first compound 0.125 µg/mL	first compound 0.25 µg/mL	first compound 0.5 µg/mL
S. aureus DSM 20231 [1], partner 32 µg/mL	–	–	–	0.736	0.669	0.647
S. aureus DSM 20231 [1], partner 64 µg/mL	–	–	–	0.0956	0.0736	0.0704
S. aureus Newman [2], partner 32 µg/mL	–	–	–	0.418	0.372	0.182
S. aureus Newman [2], partner 64 µg/mL	–	–	–	0.0932	0.0802	0.0762
S. pneumoniae D39V [3], partner 4 µg/mL	≥ 1	0.988	0.577	–	–	–
S. pneumoniae D39V [3], partner 8 µg/mL	0.999	≥ 1	0.716	–	–	–

Details	Bliss interaction score
B. subtilis 168	-0.0538
S. aureus DSM 20231 [4]	-0.0966
S. aureus Newman [5]	-0.0659
S. pneumoniae D39V [6]	0.147
